Test results as given in patent EP2769723A1, “Compounds for use in inhibiting HIV capsid assembly” (priority 2013, dated 2014).

Biological target: T1, CA (Human immunodeficiency virus type 1 group M subtype B, UniProt P12493)
T1 construct: a fusion protein of CA with glutathione-S-transferase (CA-GST)
Experiment: ALPHA screen (AlphaScreen): inhibition of CAI binding to CA
Design: species or system HIV-1
Conditions: CAI-biotin peptide / CA-GST; compounds screened at 0.5-100 µM; read-out: α screen IC50
Procedure: The AlphaScreen experiments are performed using Perkin Elmer Enspire plate reader in white 96-well ProxiPlates and PBS supplemented with 0.05% Tween20, 2mM DTT, 2% DMSO. First, Streptavidin-coated Donor beads are used to capture the CAI-biotin peptide. In the other solution, a fusion protein of CA with glutathione-S-transferase (CA-GST) is mixed with GSH Acceptor beads. Both mixtures were incubated and then mixed together. To test the ability of prepared organic compounds to inhibit the CAI binding to CA, they are screened at concentrations between 0.5-100 µM and IC50 values are calculated from the influenced signals.
Upon illumination by laser at 680 nm, Donor beads containing the photosensitizer phthalocyanine convert ambient oxygen to an excited form of singlet oxygen ^1O2. Singlet oxygen can within its half-life of ~ 4 µs diffuse approximately 200 nm in solution. If an Acceptor bead is within that proximity, which is mostly upon CA:CAI interaction, energy is transferred from the singlet oxygen to thioxene derivates within the Acceptor and signal at 520 - 620 nm is emitted.

| Structure (SMILES) | IC50 |
| --- | --- |
| O=[N+]([O-])c1ccc(F)c(Nc2nc(-c3ccc(Cl)cc3)nc3ccccc23)c1 [AMR.366] | > 200 µM |
| O=[N+]([O-])c1ccc(F)c(Nc2nc(-c3ccccn3)nc3ccccc23)c1 [AMR.416] | 2.3 µM |
| Cc1cccc(Nc2nc(-c3ccc(Cl)cc3)nc3ccccc23)c1C [AMR.365] | > 200 µM |
| O=[N+]([O-])c1ccc(O)c(Nc2nc(-c3cccnc3)nc3ccccc23)c1 [AMR.481] | 2.1 µM |
| Fc1cc(Nc2nc(-c3cccnc3)nc3ccccc23)c(F)cc1Br [AMR.483] | 16.1 µM |
| O=[N+]([O-])c1cc(Nc2nc(-c3ccncc3)nc3ccccc23)ccc1F [AMR.449] | 2.9 µM |
| Fc1ccc(Nc2nc(-c3ccc(Cl)cc3Cl)nc3ccccc23)cc1 [AMR.397] | > 200 µM |
| CCOC(=O)c1ccc(Nc2nc(-c3ccc(Cl)cc3Cl)nc3ccccc23)cc1 [AMR.390] | > 200 µM |
| Clc1ccc(Cl)c(Nc2nc(-c3cccnc3)nc3ccccc23)c1 [AMR.345] | 22 µM |
| Cc1ccc(Nc2nc(-c3cccnc3)nc3ccccc23)c(O)c1 [AMR.484] | 179 µM |
| CN(C)c1cccc(-c2nc(Nc3ccc4c(c3)nnn4C)c3ccccc3n2)c1 [AMR.509] | > 200 µM |
| c1ccc2c(Nc3ccc(-n4ccnc4)cc3)nc(-c3ccncc3)nc2c1 [AMR.359] | 37.5 µM |
| Cn1nnc2cc(Nc3nc(-c4ccc([N+](=O)[O-])cc4)nc4ccccc34)ccc21 [AMR.437] | 50.9 µM |
| Cc1ccnc(Nc2nc(-c3ccncc3)nc3ccccc23)c1 [AMR.355] | 25 µM |
| O=[N+]([O-])c1cccc(O)c1Nc1nc(-c2ccncc2)nc2ccccc12 [AMR.461] | 57.4 µM |
| Fc1cc(Nc2nc(-c3ccncc3)nc3ccccc23)c(F)cc1Br [AMR.455] | 15.3 µM |
| Clc1ccc(Cl)c(Nc2nc(-c3ccncc3)nc3ccccc23)c1 [AMR.352] | 191 µM |
| CN(C)c1ccc(Nc2nc(-c3ccncc3)nc3ccccc23)cc1 [AMR.351] | 15.4 µM |
| COc1ccc(Nc2nc(-c3cccnc3)nc3ccccc23)cc1OC [AMR.328] | 110 µM |

| Structure (SMILES) | IC50 |
| --- | --- |
| O=C(O)c1ccc(Nc2nc(-c3cccnc3)nc3ccccc23)c(O)c1 [AMR.493] | 30 µM |
| Fc1ccc(Cl)cc1Nc1nc(-c2ccncc2)nc2ccccc12 [AMR.451] | 15.1 µM |
| c1cncc(-c2nc(Nc3ccc(-n4ccnc4)cc3)c3ccccc3n2)c1 [AMR.341] | 31.5 µM |
| CCOC(=O)c1ccc(Nc2nc(-c3ccc(Cl)cc3)nc3ccccc23)cc1 [AMR.361] | > 200 µM |
| Clc1ccc(-c2nc(Nc3cc(Cl)ccc3Cl)c3ccccc3n2)c(Cl)c1 [AMR.396] | > 200 µM |
| Cc1ccc(Nc2nc(-c3ccncc3)nc3ccccc23)c(O)c1 [AMR.457] | > 200 µM |
| c1ccc2c(Nc3ccc4[nH]nnc4c3)nc(-c3ccncc3)nc2c1 [AMR.358] | 5 µM |
| Cn1nnc2cc(Nc3nc(-c4ccccn4)nc4ccccc34)ccc21 [AMR.421] | 33.7 µM |
| O=[N+]([O-])c1ccc(F)c(Nc2nc(-c3ccc(C(F)(F)F)cc3)nc3ccccc23)c1 [AMR.444] | > 200 µM |
| Fc1ccc(Nc2nc(-c3ccncc3)nc3ccccc23)cc1 [AMR.353] | > 200 µM |
| O=[N+]([O-])c1ccc(F)c(Nc2ncnc3ccccc23)c1 [AMR.475] | > 200 µM |
| Clc1ccc(-c2nc(NCCCn3ccnc3)c3ccccc3n2)cc1 [AMR.367] | > 200 µM |
| CN(C)c1cccc(Nc2nc(-c3cccnc3)nc3ccccc23)c1 [AMR.379] | 217 µM |
| O=[N+]([O-])c1cccc(O)c1Nc1nc(-c2cccnc2)nc2ccccc12 [AMR.492] | 19.7 µM |
| O=[N+]([O-])c1cc(F)ccc1Nc1nc(-c2cccnc2)nc2ccccc12 [AMR.426] | 14.5 µM |
| CN(C)c1ccc(-c2nc(Nc3cc([N+](=O)[O-])ccc3F)c3ccccc3n2)cc1 [AMR.511] | > 200 µM |
| COc1ccc(Nc2nc(-c3ccc(Cl)cc3)nc3ccccc23)cc1OC [AMR.363] | 54.8 µM |
| Cc1ccc(S(=O)(=O)NNc2nc(-c3ccncc3)nc3ccccc23)cc1 [AMR.356] | 156 µM |
| O=[N+]([O-])c1ccc(O)c(Nc2nc(-c3ccncc3)nc3ccccc23)c1 [AMR.456] | 10.2 µM |
